Measurements reported in ChEMBL document CHEMBL3872201, “Synthesis and antiproliferative activity of a natural like glycoconjugate polycyclic compound” (2016).
Calls of active or inactive are those of the source. The calls are words filed in the database; no cut-off is given here.

Tests used:
[1] = Antiproliferative activity against human SF268 cells after 48 hrs by sulforhodamine B assay; format: functional; conditions: SF-268, 48 h
[2] = Cell cycle arrest in human MDA-MB-231 cells assessed as accumulation at G0/G1 phase at 5 uM after 72 hrs by propidium iodide staining based flow cytometric analysis (reference value: 69.3%); format: functional
[3] = Antiproliferative activity against human SF539 cells after 48 hrs by sulforhodamine B assay; format: functional; conditions: SF-539, 48 h
[4] = Antiproliferative activity against human NCI-H522 cells after 48 hrs by sulforhodamine B assay; format: functional; conditions: NCI-H522, 48 h
[5] = Antiproliferative activity against human OVCAR4 cells after 48 hrs by sulforhodamine B assay; format: functional; conditions: OVCAR-4, 48 h
[6] = Antiproliferative activity against human MDA-MB-468 cells after 48 hrs by sulforhodamine B assay; format: functional; conditions: MDA-MB-468, 48 h
MDA-MB-231 [7] = test: Effect on cell cycle regulatory protein in human MDA-MB-231 cells assessed as cdc2 level at 5 uM after 48 hrs by Western blot analysis relative to control; format: functional
[8] = Cytotoxicity against human MDA-MB-231 cells assessed as inhibition of cell viability at 5 uM after 24 hrs by MTT assay relative to control; format: functional; conditions: MDA-MB-231, 24 h
[9] = Cell cycle arrest in human MDA-MB-231 cells assessed as cell enlargement at 5 to 10 uM after 8 days by light microscopic analysis; format: functional, cell-based
[10] = Cell cycle arrest in human MDA-MB-231 cells assessed as accumulation at G2/M phase at 5 uM after 48 hrs by propidium iodide staining based flow cytometric analysis (reference value: 19.5%); format: functional
[11] = Antiproliferative activity against human NCI-H226 cells after 48 hrs by sulforhodamine B assay; format: functional; conditions: NCI-H226, 48 h
[12] = Cell cycle arrest in human MDA-MB-231 cells assessed as accumulation at subG0/G1 phase at 5 uM after 48 hrs by propidium iodide staining based flow cytometric analysis (reference value: 8.8%); format: functional
[13] = Cytotoxicity against human MDA-MB-231 cells assessed as inhibition of cell viability at 10 uM after 24 hrs by MTT assay relative to control; format: functional; conditions: MDA-MB-231, 24 h
[14] = Antiproliferative activity against human TK10 cells after 48 hrs by sulforhodamine B assay; format: functional; conditions: TK-10, 48 h
[15] = Cell cycle arrest in human MDA-MB-231 cells assessed as cell flattening at 5 to 10 uM after 8 days by light microscopic analysis; format: functional, cell-based
MDA-MB-231 [16] = test: Effect on cell cycle regulatory protein in human MDA-MB-231 cells assessed as cdc2 level at 10 uM after 24 hrs by Western blot analysis relative to control; format: functional
MDA-MB-231 [17] = test: Cytotoxicity against human MDA-MB-231 cells assessed as reduction in cell number at 5 to 10 uM after 24 to 72 hrs by light microscopic analysis; format: functional, cell-based
[18] = Antiproliferative activity against human CCRF-CEM cells after 48 hrs by sulforhodamine B assay; format: functional
[19] = Antiproliferative activity against human LOXIMVI cells after 48 hrs by sulforhodamine B assay; format: functional; conditions: LOX IMVI
[20] = Antiproliferative activity against human K562 cells after 48 hrs by sulforhodamine B assay; format: functional; conditions: K562, 48 h
[21] = Antiproliferative activity against human SR cells after 48 hrs by sulforhodamine B assay; format: functional
[22] = Cell cycle arrest in human MDA-MB-231 cells assessed as accumulation at G2/M phase after 96 to 120 hrs by propidium iodide staining based flow cytometric analysis; format: functional
MDA-MB-231 [23] = test: Effect on cell cycle regulatory protein in human MDA-MB-231 cells assessed as cyclin B1 level at 10 uM after 48 hrs by Western blot analysis relative to control; format: functional
[24] = Cell cycle arrest in human MDA-MB-231 cells assessed as accumulation at subG0/G1 phase at 10 uM after 48 hrs by propidium iodide staining based flow cytometric analysis (reference value: 8.8%); format: functional
[25] = Cell cycle arrest in human MDA-MB-231 cells assessed as accumulation at G2/M phase at 5 uM after 72 hrs by propidium iodide staining based flow cytometric analysis (reference value: 19.7%); format: functional
[26] = Antiproliferative activity against human SK-MEL-2 cells after 48 hrs by sulforhodamine B assay; format: functional; conditions: SK-MEL-2, 48 h
[27] = Antiproliferative activity against human UACC62 cells after 48 hrs by sulforhodamine B assay; format: functional; conditions: UACC-62, 48 h
[28] = Antiproliferative activity against human HCT15 cells after 48 hrs by sulforhodamine B assay; format: functional; conditions: HCT-15, 48 h
MDA-MB-231 [29] = test: Cytotoxicity against human MDA-MB-231 cells assessed as inhibition of cell viability after 48 hrs by MTT assay relative to control; format: functional, cell-based
MDA-MB-231 [30] = test: Effect on cell cycle regulatory protein in human MDA-MB-231 cells assessed as p21 level at 10 uM after 48 hrs by Western blot analysis relative to control; format: functional
[31] = Antiproliferative activity against human NCI-ADR-RES cells after 48 hrs by sulforhodamine B assay; format: functional
[32] = Antiproliferative activity against human NCI-H322M cells after 48 hrs by sulforhodamine B assay; format: functional
[33] = Antiproliferative activity against human HT-29 cells after 48 hrs by sulforhodamine B assay; format: functional; conditions: HT-29, 48 h
[34] = Antiproliferative activity against human SK-MEL-28 cells after 48 hrs by sulforhodamine B assay; format: functional; conditions: SK-MEL-28, 48 h
[35] = Antiproliferative activity against human BT549 cells after 48 hrs by sulforhodamine B assay; format: functional; conditions: BT-549, 48 h
[36] = Antiproliferative activity against human U251 cells after 48 hrs by sulforhodamine B assay; format: functional; conditions: U-251, 48 h
[37] = read-out: LC50 (the source's name)

Structure (SMILES): C=C1c2c(C)nn(-c3ccc(C#CCO[C@@H]4O[C@H](CO)[C@@H](O)[C@H](O)[C@H]4O)cc3)c2N(C)C23CC1C1(C)c4c(C)nn(-c5ccc(C#CCO[C@@H]6O[C@H](CO)[C@@H](O)[C@H](O)[C@H]6O)cc5)c4N(C)C(C)(CC12)C3 (stereo not given in full)
- GI50 [1]: 1.75 µM
- TGI [1]: 3.57 µM
- CC50 [1, 37]: 7.27 µM
- Activity [2]: 74%
- GI50 [3]: 1.78 µM
- TGI [3]: 3.33 µM
- CC50 [3, 37]: 6.22 µM
- GI50 [4]: 1.67 µM
- TGI [4]: 3.26 µM
- CC50 [4, 37]: 6.37 µM
- GI50 [5]: 1.68 µM
- TGI [5]: 9.94 µM
- CC50 [5, 37]: 31.8 µM
- GI50 [6]: 1.34 µM
- TGI [6]: 2.73 µM
- CC50 [6, 37]: 5.57 µM
- fold change (FC) (MDA-MB-231 [7]): 1.5
- inhibition at 5 µM [8]: 65%
- Activity [9]: Active
- Activity [10]: 30.6%
- GI50 [11]: 1.62 µM
- TGI [11]: 3.7 µM
- CC50 [11, 37]: 8.46 µM
- Activity [12]: 2.1%
- inhibition at 10 µM [13]: 80%
- GI50 [14]: 2.01 µM
- TGI [14]: 4.04 µM
- CC50 [14, 37]: 8.09 µM
- Activity [15]: Active
- fold change (FC) (MDA-MB-231 [16]): 0.8
- Activity (MDA-MB-231 [17]): Active
- GI50 [18]: 1.04 µM
- TGI [18]: 5.03 µM
- CC50 [18, 37]: > 100 µM
- GI50 [19]: 1.37 µM
- TGI [19]: 2.79 µM
- CC50 [19, 37]: 5.69 µM
- GI50 [20]: 1.89 µM
- TGI [20]: 6.75 µM
- CC50 [20, 37]: > 100 µM
- GI50 [21]: 3.28 µM
- TGI [21]: 100 µM
- CC50 [21, 37]: 100 µM
- Activity [22]: Active
- fold change (FC) (MDA-MB-231 [23]): 0.5
- Activity [24]: 4.6%
- Activity [25]: 18.7%
- GI50 [26]: 1.76 µM
- TGI [26]: 3.39 µM
- CC50 [26, 37]: 6.55 µM
- GI50 [27]: 1.22 µM
- TGI [27]: 2.86 µM
- CC50 [27, 37]: 6.71 µM
- GI50 [28]: 1.57 µM
- TGI [28]: 3.45 µM
- inhibition (MDA-MB-231 [29]): Dose-dependent effect
- fold change (FC) (MDA-MB-231 [30]): 2
- GI50 [31]: 5.43 µM
- TGI [31]: 47 µM
- CC50 [31, 37]: 100 µM
- GI50 [32]: 1.76 µM
- TGI [32]: 3.75 µM
- CC50 [32, 37]: 8.01 µM
- GI50 [33]: 1.63 µM
- TGI [33]: 4.21 µM
- CC50 [33, 37]: 16.1 µM
- GI50 [34]: 1.9 µM
- TGI [34]: 3.52 µM
- CC50 [34, 37]: 6.5 µM
- GI50 [35]: 1.3 µM
- TGI [35]: 2.97 µM
- CC50 [35, 37]: 6.77 µM
- GI50 [36]: 1.19 µM
- TGI [36]: 2.59 µM
- CC50 [36, 37]: 5.61 µM
